# Data published in ChEMBL document CHEMBL4342525, “Synthesis and Biochemical Evaluation of Noncyclic Nucleotide Exchange Proteins Directly Activated by cAMP 1 (EPAC1) Regulators” (J Med Chem, 2020).
# The source made the active and inactive calls. The calls are words filed in the database; no cut-off is given here.
# Experiments:
# [1] = target: T1, Rap guanine nucleotide exchange factor 3 (Homo sapiens) (UniProt O95398); assay: Activity at recombinant EPAC1 (149 to 881 residues) (unknown origin) assessed as reduction in cAMP-induced stimulation of dissociation of fluorescent MANT-GDP from recombinant Rap1b at 500 uM in presence of excess nonfluorescent nucleotides by fluorescence based in-vitro GEF assay
# T1 sequence (whole entry): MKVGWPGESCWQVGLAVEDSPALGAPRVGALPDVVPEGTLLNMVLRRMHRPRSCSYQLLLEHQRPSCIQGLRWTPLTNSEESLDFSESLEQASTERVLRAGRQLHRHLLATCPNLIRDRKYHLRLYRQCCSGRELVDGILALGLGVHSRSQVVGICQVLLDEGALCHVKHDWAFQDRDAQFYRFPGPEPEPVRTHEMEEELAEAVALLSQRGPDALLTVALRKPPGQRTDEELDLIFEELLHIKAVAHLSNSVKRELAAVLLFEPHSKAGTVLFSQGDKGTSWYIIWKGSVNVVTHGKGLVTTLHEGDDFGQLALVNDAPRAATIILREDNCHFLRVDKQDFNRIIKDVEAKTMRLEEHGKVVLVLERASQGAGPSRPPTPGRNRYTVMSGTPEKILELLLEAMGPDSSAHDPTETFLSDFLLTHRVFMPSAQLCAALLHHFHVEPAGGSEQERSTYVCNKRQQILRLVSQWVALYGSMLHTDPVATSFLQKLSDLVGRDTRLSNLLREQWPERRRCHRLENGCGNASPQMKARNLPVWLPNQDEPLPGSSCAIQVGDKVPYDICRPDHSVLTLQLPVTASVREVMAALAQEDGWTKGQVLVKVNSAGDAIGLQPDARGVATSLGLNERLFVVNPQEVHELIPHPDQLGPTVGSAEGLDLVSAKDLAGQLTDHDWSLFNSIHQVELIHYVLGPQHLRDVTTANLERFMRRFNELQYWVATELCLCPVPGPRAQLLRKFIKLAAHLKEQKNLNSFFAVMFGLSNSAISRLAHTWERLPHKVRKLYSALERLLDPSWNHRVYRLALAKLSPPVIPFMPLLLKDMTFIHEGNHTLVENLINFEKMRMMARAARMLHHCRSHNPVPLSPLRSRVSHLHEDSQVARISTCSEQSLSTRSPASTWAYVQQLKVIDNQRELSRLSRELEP
# [2] = target: T2, Rap guanine nucleotide exchange factor 3 (Homo sapiens, UniProt O95398); assay: Activation of recombinant EPAC1 (149 to 881 residues) (unknown origin) assessed as stimulation of dissociation of fluorescent MANT-GDP from recombinant Rap1b in presence of excess nonfluorescent nucleotides by fluorescence based in-vitro GEF assay
# T2 sequence (O95398 whole entry): T1 sequence (whole entry)
# [3] = target: T1, Rap guanine nucleotide exchange factor 3 (Homo sapiens); assay: Activation of EPAC1 (unknown origin) expressed in U2OS cells at 100 uM incubated for 10 mins using GST-RalGDS-RBD by Western blot analysis based active GTP-bound Rap1 pull down assay; format: cell-based
# [4] = target: T1, Rap guanine nucleotide exchange factor 3 (Homo sapiens); assay: Activation of EPAC1 in HUVEC assessed as reduction in IL-6-promoted signaling by measuring pAKT protein levels at 100 uM pre-incubated for 30 mins before IL6 and sIL6Ralpha stimulation for 5 hrs by Western blotting analysis; format: cell-based
# [5] = Activation of PKA in human U2OS cells stably transfected with EPAC1 assessed as increase in VASP phosphorylation at 100 uM by Western blot analysis; format: cell-based
# [6] = target: T1, Rap guanine nucleotide exchange factor 3 (Homo sapiens); assay: Activation of EPAC1 (unknown origin) expressed in U2OS cells at 100 uM pre-incubated for 10 mins before 8-pCPT-2'-O-Me-cAMP stimulation for 10 mins using GST-RalGDS-RBD by Western blot analysis based active GTP-bound Rap1 pull down assay; format: cell-based
# [7] = Binding affinity to GST-tagged recombinant EPAC1 delta-DEP mutant (149 to 881 residues) (unknown origin) expressed in Escherichia coli BL21 Star (DE3) incubated for 4 hrs by 8-NBD-cAMP competition binding assay; parameters: species or system Homo sapiens
# [8] = target: T1, Rap guanine nucleotide exchange factor 3 (Homo sapiens); assay: Activation of EPAC1 in HUVEC assessed as reduction in IL-6-promoted signaling by measuring VCAM1 protein expression at 100 uM pre-incubated for 30 mins before IL6 and sIL6Ralpha stimulation for 5 hrs by Western blotting analysis; format: cell-based
# [9] = target: T1, Rap guanine nucleotide exchange factor 3 (Homo sapiens); assay: Activation of EPAC1 in HUVEC assessed as reduction in IL-6-promoted signaling by measuring pSTAT3 protein levels at 100 uM pre-incubated for 30 mins before IL6 and sIL6Ralpha stimulation for 5 hrs by Western blotting analysis; format: cell-based
# [10] = target: T1, Rap guanine nucleotide exchange factor 3 (Homo sapiens); assay: Activation of EPAC1 in HUVEC assessed as reduction in IL-6-promoted signaling by measuring ICAM1 protein expression at 100 uM pre-incubated for 30 mins before IL6 and sIL6Ralpha stimulation for 5 hrs by Western blotting analysis; format: cell-based
# [11] = target: T1, Rap guanine nucleotide exchange factor 3 (Homo sapiens); assay: Activation of EPAC1 in HUVEC assessed as reduction in IL-6-promoted signaling by measuring pERK protein levels at 100 uM pre-incubated for 30 mins before IL6 and sIL6Ralpha stimulation for 5 hrs by Western blotting analysis; format: cell-based
# [12] = target: T1, Rap guanine nucleotide exchange factor 3 (Homo sapiens); assay: Activation of recombinant EPAC1 (149 to 881 residues) (unknown origin) assessed as stimulation of dissociation of fluorescent MANT-GDP from recombinant Rap1b at 500 uM in presence of excess nonfluorescent nucleotides by fluorescence based in-vitro GEF assay relative to cAMP
# [13] = target: T1, Rap guanine nucleotide exchange factor 3 (Homo sapiens); assay: Activation of EPAC1 in HUVEC assessed as reduction in IL-6-promoted signaling by measuring SELE protein expression at 100 uM pre-incubated for 30 mins before IL6 and sIL6Ralpha stimulation for 5 hrs by Western blotting analysis; format: cell-based
# [14] = target: T1, Rap guanine nucleotide exchange factor 3 (Homo sapiens); assay: Binding affinity to GST-tagged recombinant EPAC1 CNBD (169 to 318 residues) (unknown origin) expressed in Escherichia coli BL21 Star (DE3) assessed as relative fluorescence intensity incubated for 4 hrs by 8-NBD-cAMP competition binding assay relative to control; parameters: concentration or dose not given beside the values
# [15] = target: T1, Rap guanine nucleotide exchange factor 3 (Homo sapiens); assay: Activation of recombinant EPAC1 (149 to 881 residues) (unknown origin) assessed as stimulation of dissociation of fluorescent MANT-GDP from recombinant Rap1b at 10 uM in presence of excess nonfluorescent nucleotides by fluorescence based in-vitro GEF assay relative to cAMP
# [16] = target: T2, Rap guanine nucleotide exchange factor 3; assay: Binding affinity to GST-tagged recombinant EPAC1 CNBD (169 to 318 residues) (unknown origin) expressed in Escherichia coli BL21 Star (DE3) incubated for 4 hrs by 8-NBD-cAMP competition binding assay
# [17] = target: T1, Rap guanine nucleotide exchange factor 3 (Homo sapiens); assay: Activity at EPAC1 in HUVEC assessed as promotion of IL-6-promoted signaling by measuring increased pAKT protein levels at 100 uM pre-incubated for 30 mins before IL6 and sIL6Ralpha stimulation for 5 hrs by Western blotting analysis; format: cell-based
# [18] = target: T1, Rap guanine nucleotide exchange factor 3 (Homo sapiens); assay: Activation of recombinant EPAC1 (149 to 881 residues) (unknown origin) assessed as stimulation of dissociation of fluorescent MANT-GDP from recombinant Rap1b up to 100 uM in presence of excess nonfluorescent nucleotides by fluorescence based in-vitro GEF assay relative to cAMP
Activity [1],EC50 [2] [µM],Activity [3],Activity [4],Activity [5],Activity [6],IC50 [7] [µM],Activity [8],Activity [9],Activity [10],Activity [11],Activity [12] [%],Activity [13],Activity [14] [%],Activity [15],IC50 [16] [µM],Activity [17],Activity [18],SMILES
Active,5,Active,inactive,Not Active,Active,0.6,inactive,inactive,inactive,inactive,2,inactive,7,Active,–,–,–,COc1ccc2ccc(OCC(=O)NS(=O)(=O)c3ccc(N)cc3OC)cc2c1
–,–,Active,–,–,–,6.7,Active,Active,–,inactive,–,–,61,–,9.2 to 12,Active,–,Cc1ccc(S(=O)(=O)NC(=O)COc2ccc3ccccc3c2)c(C)c1
–,5,–,–,Not Active,Active,0.5,–,–,–,–,–,–,14,Active,–,–,Active,COc1ccc2ccc(OCC(=O)NS(=O)(=O)c3ccc4ccccc4c3)cc2c1
–,–,Active,–,Not Active,–,–,Active,Active,inactive,inactive,–,inactive,56,Active,4.6,Active,–,Cc1cc(Nc2ncccc2C(F)(F)F)cc(S(=O)(=O)NC(=O)COc2ccc3ccccc3c2)c1
